The values that follow come from patent US9688624B2, “DP2 antagonist and uses thereof” (Brickell Biotech, Inc., priority 2010, dated 2017).

The data set in a line: Phase I single ascending dose study, safety and tolerability. It is filed as in vivo, human. Conditions: humans, capsule, 5 to 500 mg single doses. From the text: To assess: (1) the safety and tolerability of single and multiple doses of Compound 2 following oral administration; and (2) the pharmacokinetics (PK) of Compound 2 after single and multiple doses; and (3) the effects of the pharmacodynamic (PD) responses in healthy subjects to Compound 2 as measured by a PGD2-induced eosinophil shape change assay (ESC).
The Single Ascending Dose (SAD) study will include 6 cohorts with 8 subjects each, 6 receiving the active treatment and 2 receiving the placebo. The SAD study will explore doses of 5, 15, 50, 150, 300 and 500 mg/day. Compound 2 (Pattern 1) is administered as API in a Capsule, prepared on site at the clinical pharmacy (see Example 10). Safety monitoring will include: a “how do you feel” (HDYF) question, adverse events reporting, physical examinations, vital signs, ECG's, and a biological assessment (clinical chemistry, hematology and urinalysis). The decision to escalate to the next dose level will be based on the results of medical monitoring, and a blinded interim analysis of pharmacokinetic parameters (AUC, Cmax) and pharmacodynamic responses. Doses may be adjusted based on the occurrence of adverse events. Subjects will be followed on site for 72 hours after dose administration.

Where a name gives a salt, the structure may show the parent alone.

Turning to `COc1ccc(CC(=O)O)cc1Oc1ccc(NC(=O)C(C)(C)C)cc1CSC(C)(C)C` [Compound 2, 2-(3-(2-((tert-butylthio)methyl)-4-(2,2-dimethyl-propionylamino)phenoxy)-4-methoxyphenyl)acetic acid, sodium salt], the tolerability entry is on record as “well tolerated”.
